{"source": "patent US20080286337A1", "about": "“Method of treating a disease in an eye using a scleral lens” (Boston Foundation for Sight, priority 2007, published 2008)", "key": {"[1]": {"system": "corneal neovascularization", "experiment": "Topical AVASTIN in the scleral lens drug delivery system to treat corneal neovascularization", "format": "in vivo", "from_the_text": "This study using AVASTIN® off-label, topically, to treat corneal neovascularization was repeated using the scleral lens drug delivery system. […] This therapeutic effect was achieved without BAK. Instead, the expanded pre-corneal tear film of the scleral lens drug delivery system provided adequate bioavailability of the drug without exposing the cornea to BAK."}, "[2]": {"system": "corneal neovascularization", "conditions": "solution of 1% AVASTIN and 0.01% BAK, one drop, four times per day for at least thirty days; no scleral lens; cited from earlier work"}}, "note": "Like-named read-outs stand apart in the source and are kept apart here.", "data": [{"substance": "bevacizumab [AVASTIN®]", "values": [{"measurement": "therapeutic effect on corneal neovascularization", "setting": "[1]; one drop of 1% AVASTIN added to expanded pre-corneal tear film of artificial tears in a scleral lens twice per day, without BAK", "value": "achieved a therapeutic effect by thirty days"}, {"measurement": "continued benefit after initial therapeutic effect", "setting": "[1]; same regimen, the sixty days following the first thirty days", "value": "continued benefit over the subsequent sixty days"}, {"measurement": "regression of corneal neovascularization (clinical photos, FIG. 5)", "setting": "[1]; scleral lens drug delivery system", "value": "regression of corneal neovascularization"}, {"measurement": "therapeutic effect on corneal neovascularization", "setting": "[2]", "value": "Therapeutic effect was reported"}]}]}
